Common to all, as to assay: MHC II competition binding assay
One test addresses T1, DRB1*0301 (Homo sapiens, UniProt P01903+P01911, A100K/A102G/A103R/A169T/F55Y/I96L/K41T/L162R/M171V/P40S/Q125H/Q178H/Q39Y/R42S/S66N/T106N/T262R/W38E/Y61H).
T1 construct: purchased Benaroya Research Institute (Seattle, Wash.)
As for the experimental part:
(§1) MHC Binding Assays. MHC II competition binding assays were performed using a 384-well high throughput assay as previously described (Salvat, et al. (2014) supra). Binding assays were performed for the eight alleles: DRB1*0101, 0301, 0401, 0701, 0801, 1101, 1301, and 1501. Briefly, 100 nM biotinylated control peptides composed of known peptide antigens for each MHC II allele were incubated in polypropylene 384-well plates with 50 nM purified recombinant MHC II protein and serial dilutions of LST or variant peptide fragments (100 μM to 10 nM). Peptide-MHC II complexes were captured from equilibrated solutions using the conformation specific anti-HLA-DR antibody L243 coated on high binding ELISA plates. Bound control peptide was quantified using the DELFIA streptavidin-Europium conjugate and time resolved fluorescence (SpectraMax Gemini Fluorescence Microplate Reader).

In another test the target is DRB1*1301 (Homo sapiens, UniProt P01903+P01911, A100E/A169T/K41T/L162R/M171V/P40S/Q125H/Q178H/Q39Y/Q99D/R42S/S66N/T262R/W38E/Y61H). Here is the method:
as §1

Another test has as its target T2, DRB1*0401 (Homo sapiens, UniProt P01903+P01911, A100K/A169T/F76Y/I96L/K127E/L162R/M171V/N62H/P40V/Q125Y/R42H/S133A/S149N/S66Y/V115G/V209L/W38E).
T2 construct: purchased Benaroya Research Institute (Seattle, Wash.)
Here is the method: as §1

In a further test the target is T3, DRB1*0101 (Homo sapiens, UniProt P01903+P01911, A100R/D57E/F55L/F60I/F76Y/I96L/L162R/M171V/P40L/Q125E/R42F/V115G/Y59C).
T3 construct: purchased Benaroya Research Institute (Seattle, Wash.)
As for the experimental part:
as §1

For the next test, the target named is DRB1*0701 (Homo sapiens, UniProt P01903+P01911, A100R/A102G/A103Q/D57E/D86V/E43K/F76Y/K127E/L162R/M171V/P40G/Q125H/Q99D/R33Q/R42Y/R54Q/S133A/S66F/T210M/V115G/Y107V/Y59L/Y89S). Here is the method:
as §1

The target of the next test is T4, DRB1*1501 (Homo sapiens, UniProt P01903+P01911).
T4 construct: purchased Benaroya Research Institute (Seattle, Wash.)
Here is the method: as §1, with “MHC II competition binding assays were performed using a 384-well high throughput assay as previously described (Salvat, et al. (2014) supra). Binding assays were performed for the eight alleles: DRB1*0101, 0301, 0401, 0701, 0801, 1101, 1301, and 1501.” left out

The target of the next test is DRB1*0801 (Homo sapiens, UniProt P01903+P01911, A100R/A103L/A169T/D86S/F76Y/H45Y/I96F/K41T/L162R/M171V/P40S/Q125H/Q178H/Q39Y/Q99D/R218S/R42G/S66Y/V115G/W38E). Here is the method:
as §1

The target in another test is DRB1*1101 (Homo sapiens, UniProt P01903+P01911, A100R/A169T/A87E/I96F/K41T/L162R/M171V/P40S/Q125H/Q178H/Q39Y/Q99D/R42S/S66Y/T262R/V115G/W38E). Here is the method:
as §1

Where [1] appears, read: synthetic peptide competing with biotinylated control peptide, read-out: IC50 0301.
The mark [2] stands for this setting: synthetic peptide competing with biotinylated control peptide, read-out: IC50 1301.
Where [3] appears, read: synthetic peptide competing with biotinylated control peptide, read-out: IC50 0401.
The mark [4] stands for this setting: synthetic peptide competing with biotinylated control peptide, read-out: IC50 0101.
Where [5] appears, read: synthetic peptide competing with biotinylated control peptide, read-out: IC50 0701.
The mark [6] stands for this setting: synthetic peptide competing with biotinylated control peptide, read-out: IC50 1501.
Where [7] appears, read: synthetic peptide competing with biotinylated control peptide, read-out: IC50 0801.

We go through twelve compounds from US11091749B2, “Deimmunized lysostaphin and methods of use” (TRUSTEES OF DARTMOUTH COLLEGE, priority 2014, dated 2021).

Read-outs that look alike come from different tables or passages of the source. Where no end group is shown, it is not given here. Some results are limits rather than exact numbers.

Turning to SAQWLGNYKKGYGYG [Design N12G], the concentration for half-maximal inhibition (IC50) (usually the concentration that inhibits the measured activity by half) is more than 250 µM on DRB1*0301 (setting [1]); more than 250 µM at DRB1*1301 (setting [2]); more than 250 µM at DRB1*0401 (setting [3]); less than 0.01 µM on DRB1*0101 (setting [4]); more than 250 µM at DRB1*0701 (setting [5]); more than 250 µM on DRB1*1501 (setting [6]).

On to DHVKAGQQIGWSGSTGY [Peptide 93_99], for which the IC50 at DRB1*0301 (DRB1*0301, read-out: IC50) is more than 250 µM; at DRB1*1301 (DRB1*1301, read-out: IC50), more than 250 µM; at DRB1*0401 (DRB1*0401, read-out: IC50), less than 0.01 µM; at DRB1*0101 (DRB1*0101, read-out: IC50), less than 0.01 µM; at DRB1*0801 (DRB1*0801, read-out: IC50), more than 250 µM; at DRB1*1101 (DRB1*1101, read-out: IC50) it was more than 250 µM. Besides, the IC50 at DRB1*1501 (DRB1*1501, read-out: IC50) was less than 0.01 µM.

Regarding `CSCC[C@H](NC(=O)[C@H](Cc1ccc(O)cc1)NC(=O)[C@H](Cc1c[nH]c2ccccc12)NC(=O)[C@H](CCC(N)=O)NC(=O)[C@H](CCCNC(=N)N)NC(=O)[C@H](Cc1c[nH]cn1)NC(=O)[C@@H](NC(=O)CN)C(C)C)C(=O)N[C@@H](Cc1c[nH]cn1)C(=O)N[C@@H](CC(C)C)C(=O)N[C@@H](CO)C(=O)N[C@@H](CCCCN)C(=O)N[C@@H](Cc1ccc(O)cc1)C(=O)N[C@@H](CC(N)=O)C(=O)N[C@H](C(=O)N[C@@H](CCCCN)C(=O)N[C@H](C(=O)NCC(=O)N[C@@H](CC(=O)O)C(=O)O)C(C)C)C(C)C` [Design C3WT], the “binder class DRB1*1301” value at DRB1*1301 was “weakly”. Further, the “binder class DRB1*0101” value at DRB1*0101 was “strong (strong binder if an IC50 value of less than 0.1 μM was observed)”. The “binder class DRB1*0701” value on DRB1*0701 is on record as “strong (strong binder if an IC50 value of less than 0.1 μM was observed)”. The “binder class DRB1*1501” value at DRB1*1501 is reported as “weak (weak if an IC50 value was in the 1-10 μM range)”.

In the case of GVDFFMNIGTPVKAISSGKIV [Design C2WT], the IC50 on DRB1*1301 (setting [2]) was 104 µM; at DRB1*0401 (setting [3]) it was 13.7 µM; at DRB1*0801 (setting [7]), more than 250 µM.

Turning to SAQWLNNYKKGYGYG [Design C1WT], the IC50 at DRB1*0301 (setting [1]) is more than 250 µM; at DRB1*0401 (setting [3]), more than 250 µM; at DRB1*0701 (setting [5]) it was more than 250 µM; on DRB1*0801 (setting [7]), 13.7 µM; at DRB1*1501 (setting [6]), 101 µM.

With DHVKAGQIIGWSGSTGY [Peptide Y93H], the IC50 at DRB1*0301 is more than 250 µM; on DRB1*1301, more than 250 µM; on DRB1*0401 it was more than 250 µM; at DRB1*0801, more than 250 µM; on DRB1*1101, more than 250 µM; on DRB1*1501, less than 0.01 µM.

Regarding GVHRQWYMHMSKYNVKVGD [Design L83M], the IC50 at DRB1*0401 (setting [3]) is more than 250 µM.

For the compound DYVKAGQQIGWSGSTGY [Peptide I99Q], the IC50 at DRB1*0301, at DRB1*1301 and at DRB1*0801 was more than 250 µM each time.

With SAQWLNHYKKGYGYG [Design N13H], the IC50 at DRB1*0301 (setting [1]), on DRB1*0401 (setting [3]), on DRB1*0101 (setting [4]), on DRB1*0701 (setting [5]), on DRB1*0801 (setting [7]) and on DRB1*1501 (setting [6]) was more than 250 µM throughout.

As to DYVEAGQQIGWSGSTGY [Peptide 95-99], the IC50 on DRB1*0301 (DRB1*0301, read-out: IC50) was more than 250 µM; at DRB1*1301 (DRB1*1301, read-out: IC50), more than 250 µM; at DRB1*0101 (DRB1*0101, read-out: IC50), less than 0.01 µM; on DRB1*0701 (DRB1*0701, read-out: IC50), 104 µM; at DRB1*0801 (DRB1*0801, read-out: IC50), more than 250 µM; on DRB1*1501 (DRB1*1501, read-out: IC50) it was less than 0.01 µM.

With GVDFFMNEGTPVHAISSGKIV [Design 41_46], the IC50 at DRB1*0301 was more than 250 µM; at DRB1*1301, more than 250 µM; on DRB1*0401 it was less than 0.01 µM; on DRB1*0101 it was less than 0.01 µM; at DRB1*0801 it was more than 250 µM; at DRB1*1101 it was less than 0.01 µM. At DRB1*1501, this compound yielded an IC50 of less than 0.01 µM.

Regarding “Lys46His: full-length lysostaphin single point mutant”, in the test with DRB1*0101, the “fold decrease in binding vs wild-type peptide, 0101” value is listed as “two-fold”.
